{"source": "patent US12152255B2", "about": "“ω-Transaminase mutant obtained by DNA synthetic shuffling combined mutation and use” (priority 2020, dated 2024)", "molecules": {"B1": {"name": "Aspergillus terreus ω-transaminase, wild type (WT-ATA), SEQ ID NO: 1 (Aspergillus terreus NIH2624) (protein)", "chain": "MASMDKVFAGYAARQAILESTETTNPFAKGIAWVEGELVPLAEARIPLLDQGFMHSDLTYDVPSVWDGRFFRLDDHITRLEASCTKLRLRLPLPRDQVKQILVEMVAKSGIRDAFVELIVTRGLKGVRGTRPEDIVNNLYMFVQPYVWVMEPDMQRVGGSAVVARTVRRVPPGAIDPTVKNLQWGDLVRGMFEAADRGATYPFLTDGDAHLTEGSGFNIVLVKDGVLYTPDRGVLQGVTRKSVINAAEAFGIEVRVEFVPVELAYRCDEIFMCTTAGGIMPITTLDGMPVNGGQIGPITKKIWDGYWAMHYDAAYSFEIDYNERN"}}, "key": {"[1]": {"target": "Aspergillus terreus ω-transaminase mutant F115L-H210N-M150C-M280C (parent SEQ ID NO: 1; gene SEQ ID NO: 3) (Aspergillus terreus, UniProt Q0C8G1, E253A/F115L/H210N/M150C/M280C)", "experiment": "Kinetic parameters, transamination (acetophenone formation at 245 nm), F115L-H210N-M150C-M280C", "assay_type": "biochemical", "details": "phosphate buffer pH 8.0, 0.1 mM PLP"}, "[2]": {"target": "Aspergillus terreus ω-transaminase mutant F115L-H210N (parent SEQ ID NO: 1; gene SEQ ID NO: 4) (Aspergillus terreus, UniProt Q0C8G1, D231A/F115L/H210N)", "experiment": "Kinetic parameters, transamination (acetophenone formation at 245 nm), F115L-H210N", "assay_type": "biochemical", "details": "phosphate buffer pH 8.0, 0.1 mM PLP"}, "[3]": {"target": "Aspergillus terreus ω-transaminase mutant F115L-H210N-E253A-I295V (parent SEQ ID NO: 1; gene SEQ ID NO: 5) (Aspergillus terreus, UniProt Q0C8G1)", "experiment": "Kinetic parameters, transamination (acetophenone formation at 245 nm), F115L-H210N-E253A-I295V", "assay_type": "biochemical"}, "[4]": {"target": "Aspergillus terreus ω-transaminase mutant I77L-F115L-E133A-H210N-N245D (parent SEQ ID NO: 1; gene SEQ ID NO: 6) (Aspergillus terreus, UniProt Q0C8G1, D224K/E133A/F115L/H210N/I77L/N245D)", "experiment": "Kinetic parameters, transamination (acetophenone formation at 245 nm), I77L-F115L-E133A-H210N-N245D", "assay_type": "biochemical", "details": "phosphate buffer pH 8.0, 0.1 mM PLP"}, "[5]": {"target": "Aspergillus terreus ω-transaminase mutant I77L-Q97E-F115L-L118T-E253A-G292D (parent SEQ ID NO: 1; gene SEQ ID NO: 7) (Aspergillus terreus, UniProt Q0C8G1, D224A/E253A/F115L/G292D/I77L/L118T/Q97E)", "experiment": "Kinetic parameters, transamination (acetophenone formation at 245 nm), I77L-Q97E-F115L-L118T-E253A-G292D", "assay_type": "biochemical", "details": "phosphate buffer pH 8.0, 0.1 mM PLP"}, "[6]": {"target": "Aspergillus terreus ω-transaminase mutant I77L-E133A-N245D-G292D (parent SEQ ID NO: 1; gene SEQ ID NO: 8) (Aspergillus terreus, UniProt Q0C8G1, E133A/G292D/I77L/N245D)", "experiment": "Kinetic parameters, transamination (acetophenone formation at 245 nm), I77L-E133A-N245D-G292D", "assay_type": "biochemical", "details": "phosphate buffer pH 8.0, 0.1 mM PLP"}, "[7]": {"tested_on": "Aspergillus terreus ω-transaminase mutant H210N-N245D-E253A-G292D (parent SEQ ID NO: 1; gene SEQ ID NO: 9)", "experiment": "Kinetic parameters, transamination (acetophenone formation at 245 nm), H210N-N245D-E253A-G292D", "assay_type": "biochemical", "details": "phosphate buffer pH 8.0, 0.1 mM PLP"}, "[8]": {"target": "T1, Aspergillus terreus ω-transaminase, wild type (WT-ATA), SEQ ID NO: 1 (Aspergillus terreus, UniProt Q0C8G1)", "T1 sequence (Q0C8G1 1-325)": "B1 chain", "experiment": "Kinetic parameters, transamination (acetophenone formation at 245 nm), WT-ATA", "details": "phosphate buffer pH 8.0, 0.1 mM PLP"}, "[9]": {"tested_on": "CC(=O)C(=O)O", "experiment": "Kinetic parameters, transamination (acetophenone formation at 245 nm), I77L-E133A-N245D-G292D", "assay_type": "biochemical, Aspergillus terreus", "details": "other: I77L-E133A-N245D-G292D, phosphate buffer pH 8.0, 0.1 mM PLP"}, "[10]": {"tested_on": "C[C@@H](N)c1ccccc1", "experiment": "Kinetic parameters, transamination (acetophenone formation at 245 nm), I77L-E133A-N245D-G292D", "assay_type": "biochemical, Aspergillus terreus", "details": "other: I77L-E133A-N245D-G292D, phosphate buffer pH 8.0, 0.1 mM PLP"}, "[11]": {"substrate": "CC(=O)C(=O)O", "experiment": "purified protein, by the assay type", "details": "other: WT-ATA, phosphate buffer pH 8.0, 0.1 mM PLP"}, "[12]": {"details": "phosphate buffer pH 8.0, 0.1 mM PLP"}}, "note": "Where two headings read alike, the source gives them in different places.", "data": [{"molecule": "CC(=O)C(=O)O", "note": "[pyruvate, pyruvic acid]", "values": [{"measurement": "Kcat^pyruvate", "setting": "[1]", "result": "3.87 ± 0.03", "unit": "s⁻¹"}, {"measurement": "kcat/Km^pyruvate", "setting": "[1]", "result": 1450, "unit": "M⁻¹ s⁻¹"}, {"measurement": "Kcat^pyruvate", "setting": "[2]", "result": "2.55 ± 0.01", "unit": "s⁻¹"}, {"measurement": "kcat/Km^pyruvate", "setting": "[2]", "result": 1710, "unit": "M⁻¹ s⁻¹"}, {"measurement": "Kcat^pyruvate", "setting": "[3]; [12]", "result": "3.17 ± 0.01", "unit": "s⁻¹"}, {"measurement": "kcat/Km^pyruvate", "setting": "[3]; [12]", "result": 2030, "unit": "M⁻¹ s⁻¹"}, {"measurement": "Km", "setting": "[3]; read-out: Km^pyruvate, phosphate buffer pH 8.0, 0.1 mM PLP", "result": "1560 ± 70", "unit": "µM"}, {"measurement": "Kcat^pyruvate", "setting": "[4]", "result": "1.96 ± 0.03", "unit": "s⁻¹"}, {"measurement": "kcat/Km^pyruvate", "setting": "[4]", "result": 990, "unit": "M⁻¹ s⁻¹"}, {"measurement": "Kcat^pyruvate", "setting": "[5]", "result": "2.76 ± 0.01", "unit": "s⁻¹"}, {"measurement": "kcat/Km^pyruvate", "setting": "[5]", "result": 1330, "unit": "M⁻¹ s⁻¹"}, {"measurement": "Kcat^pyruvate", "setting": "[6]", "result": "3.05 ± 0.02", "unit": "s⁻¹"}, {"measurement": "kcat/Km^pyruvate", "setting": "[6]", "result": 1180, "unit": "M⁻¹ s⁻¹"}, {"measurement": "Kcat^pyruvate", "setting": "[7]", "result": "1.89 ± 0.03", "unit": "s⁻¹"}, {"measurement": "kcat/Km^pyruvate", "setting": "[7]", "result": 3010, "unit": "M⁻¹ s⁻¹"}, {"measurement": "Kcat^pyruvate", "setting": "[8]", "result": "0.50 ± 0.01", "unit": "s⁻¹"}, {"measurement": "kcat/Km^pyruvate", "setting": "[8]", "result": 2220, "unit": "M⁻¹ s⁻¹"}]}, {"molecule": "C[C@@H](N)c1ccccc1", "note": "[α-MBA, (R)-(+)-α-methylbenzylamine]", "values": [{"measurement": "Km", "setting": "[3]; read-out: Km^α-MBA, phosphate buffer pH 8.0, 0.1 mM PLP", "result": "800 ± 30", "unit": "µM"}]}, {"molecule": "Aspergillus terreus ω-transaminase mutant I77L-E133A-N245D-G292D (parent SEQ ID NO: 1; gene SEQ ID NO: 8) (Aspergillus terreus NIH2624; E133A/G292D/I77L/N245D)", "values": [{"measurement": "Km", "setting": "[9]", "result": "2590 ± 20", "unit": "µM"}, {"measurement": "Km", "setting": "[10]", "result": "840 ± 50", "unit": "µM"}]}, {"molecule": "B1", "values": [{"measurement": "Km", "setting": "[11]", "result": "230 ± 20", "unit": "µM"}]}]}
